# Calls of active or inactive are those of the source. The rule behind the calls is not given here.
# Legend:
# HepG2 [1] = assay: Antimigratory activity against human HepG2 cells assessed as reduction in cell migration measured after 24 hrs by crystal violet staining based transwell assay; assay type: functional; details: dose 0.125-0.5 µM, DDE = dose-dependent effect
# A549 = assay: Cytotoxicity against human A549 cells assessed as reduction in cell viability by CCK-8 assay; assay type: functional, cell-based
# HepG2 [2] = assay: Downregulation of Cyclin A2 mRNA expression in human HepG2 cells assessed as fragments per kilo base of exon per million mapped fragments by RT-qPCR analysis (reference value: 37.48 to 47.03); assay type: functional
# HepG2 [3] = assay: Induction of ferroptosis in human HepG2 cells assessed as decrease in GPX4 protein expression at 2 uM measured after 6 hrs by Western blot analysis; assay type: functional, cell-based
# HepG2 [4] = assay: Induction of ferroptosis in human HepG2 cells assessed as decrease in GPX4 mRNA expression measured after 36 hrs by qRT-PCR analysis; assay type: functional, cell-based; details: dose […], DDE = dose-dependent effect
# HepG2 [5] = assay: Induction of ferroptosis in human HepG2 cells assessed as upregulation of ACSL4 mRNA expression by measuring fragments per kilo base of exon per million mapped fragments […] (reference value: 75.85 to 97.44); assay type: functional
# HepG2 [6] = assay: Induction of cell cycle arrest in human HepG2 cells assessed as decrease in cells at G2 phase at 0.5 to 2 uM; assay type: functional, cell-based; details: dose 0.5-2 µM
# HepG2 [7] = assay: Cytotoxicity against human HepG2 cells assessed as reduction in cell viability at 1.5625 uM incubated for 48 hrs by CCK-8 assay relative to control; assay type: functional
# HepG2 [8] = assay: Induction of cell death in human HepG2 cells measured after 48 hrs by Annexin V-FITC/PI double staining based flow cytometry analysis; assay type: functional; details: dose 0.5-2 µM, DDE = dose-dependent effect
# HepG2 [9] = assay: Cytotoxicity against human HepG2 cells assessed as reduction in cell viability at 5 to 100 uM relative to control; assay type: functional; details: dose 5-100 µM
# HepG2 [10] = assay: Antiproliferative activity against human HepG2 cells at 0.125 to 0.5 uM incubated for 48 hrs; assay type: functional, cell-based; details: dose 0.125-0.5 µM
compound,measurement,setting,value
C=C(C)[C@@H]1CC[C@]2(C(=O)OCCCCCn3cc(CCN)c4ccccc43)CC[C@]3(C)[C@H](C[C@H]4OC(=O)C[C@@H](O)[C@]5(C)[C@@H]4[C@@]3(C)CC[C@H]5C(=C)C)[C@@H]12,Activity,HepG2 [1],Dde
same,IC50,A549,5.44 µM
same,Activity,HepG2 [2],30.38
same,Activity,HepG2 [3],Active
same,Activity,HepG2 [4],Dde
same,Activity,HepG2 [5],132.19
same,Activity,HepG2 [6],Active
same,inhibition at 1.562 µM,HepG2 [7],95.1%
same,Activity,HepG2 [8],Dde
same,Activity,HepG2 [9],10.55%
same,Activity,HepG2 [10],Active

# From ChEMBL document CHEMBL5143734, “Seco-Lupane Triterpene Derivatives Induce Ferroptosis through GPX4/ACSL4 Axis and Target Cyclin D1 to Block the Cell Cycle” (J Med Chem, 2022)
